According to patent publication US9029135B2 (priority 2009, dated 2015):
Where “and” joins values, the source holds several entries; their conditions need not be identical. Identical values can stand only once.

Assays:
[1] = test system: MDS mouse model; test: MDS mouse model, combination of KanAS, ATRA and 5-azacytidine, survival; type: in vivo; conditions: MDS mice, individual mouse; alive = still alive on 24 Mar. 2010
Procedure: The MDS mouse model described in Omidvar et al. (2007, Cancer Res. 67:11657-67) was used to study the effect of the combination of KanAS, ATRA and 5-azacytidine on MDS.
100 microliters of 1 mg/ml solution of 5-Azacytidine was injected IP to the mice on the day of diagnosis and then on Mondays, Wednesdays and Fridays until death of the mice.
ATRA was administered through a 10 mg 21 day release pellet
The vaccination protocol was as follows: 100 micrograms of DNA (VVACS02 or pVax14 or pVaxKanAS) were administered […] diagnosis (day 0), which corresponded to the day on which the peripheral blood platelet count fell below normal (<10^5/microliter). On day 20 and on day 40, 2×50 micrograms of DNA were injected again.
The mice were randomly divided into four groups after twelve 5-azacytidine injections: • 5-Azacytidine (n=5) • 5-azacytidine+ATRA (n=4) • 5-azacytidine+VVACS02 DNA (n=4) • 5-azacytidine+ATRA+VVACS02 DNA (n=4)

[2] = test system: APL cells; test: APL mouse model survival, Kaplan-Meier, mice followed for two years; type: in vivo, FVB/N mice; conditions: Kaplan-Meier survival curves
Procedure: The effect of different DNA constructs on an APL mouse model was studied using the protocol disclosed in Padua et al. (2003, Nature Medicine 9:1413-1417). Briefly, 10^4 APL cells were injected to FVB/N mice. Then an ATRA pellet, which releases 5 mg/day of ATRA for 21 days, was introduced behind the neck of the mice with a trochar. DNA (2×50 micrograms of plasmid) was injected the day after introducing the ATRA pellet, and every 20 days for a total of three injections. The following DNA constructs were injected to the mice: • the pVaxKanAS construct, also referred to as pVax14; • the pCDNA3PML-RARαFrC construct (VVACS01); • the pVaxPML-RARαFrC construct; and • the pCDNA3PML-RARαASFrC construct (VVACS04).
A pellet purchased from the manufacturer of the ATRA pellet (Innovative Research, Sarasota, USA) was used as a placebo.
The mice were followed for two years and Kaplan-Meier curves were constructed.
The results are shown on FIG. 2 and in Table 1 herebelow. The log-rank (Mantel-Cox) and general Wilcoxon tests were applied to the Kaplan-Meier curves. Both statistical tests led to identical conclusions in terms of significance.

| Compound | Days alive from treatment [1] | general Wilcoxon Chi-2 value ([2]; V.S. placebo) | general Wilcoxon significance (p bound) ([2]; V.S. placebo) | log-rank (Mantel-Cox) Chi-2 value ([2]; V.S. placebo) | log-rank (Mantel-Cox) significance (p bound) ([2]; V.S. placebo) | general Wilcoxon Chi-2 value ([2]; V.S. placebo + DNA) | general Wilcoxon significance (p bound) ([2]; V.S. placebo + DNA) | log-rank (Mantel-Cox) Chi-2 value ([2]; V.S. placebo + DNA) | log-rank (Mantel-Cox) significance (p bound) ([2]; V.S. placebo + DNA) |
| --- | --- | --- | --- | --- | --- | --- | --- | --- | --- |
| Nc1ncn([C@@H]2O[C@H](CO)[C@@H](O)[C@H]2O)c(=O)n1 [5-azacytidine] | 33 days and Alive on 24 Mar. 2010 (112 days) and 72 days and Alive on 24 Mar. 2010 (75 days) and 37 days | – | – | – | – | – | – | – | – |
| CC1=C(/C=C/C(C)=C/C=C/C(C)=C/C(=O)O)C(C)(C)CCC1 [ATRA, all-trans retinoic acid] | – | 5.1827E+01 | p < 0.0001 | 6.0018E+01 | p < 0.0001 | 1.6318E+01 | p < 0.0001 | 8.7059E+00 | p < 0.005 |
